Results: publication PMC7728372, “Synthesis and Biological Evaluation of Amino Chalcone Derivatives as Antiproliferative Agents” (Molecules, 2020)
Read-outs that look alike come from different tables or passages of the source. Blank lines part the entries; values can stand above or below the compound they belong to.

How the values were obtained:
hCA IX = test system: hCA IX; parameters: method as in PMID 29852328; settings: cited from earlier work
MCF-7 cells [1] = settings: cited from earlier work
MCF-7 cells [2] = assay: MTT antiproliferative assay, MCF-7 cells; assay type: cell-based, human
Method: (§1) Cell lines used were cultured in humidified incubator at 37 °C and 5% CO2. The RPMI-1640 medium was supplemented with 10% fetal bovine serum, penicillin (100 U/mL) and streptomycin (0.1 mg/mL).
(§2) Cell lines were seeded into […] and incubated for 24 h. Then cells were treated with different concentrations of compounds. And after another 48 h, MTT reagent (20 μL per well) was added and then incubated at 37 °C for 4 h. Formazan was then dissolved with DMSO. Absorbencies of formazan solution were measured at […]. The IC50 values of tested compounds were calculated by SPSS version 17.0.

MGC-803 cells [3] = assay: MTT antiproliferative assay, MGC-803 cells; assay type: cell-based, human; settings: exposure for 48 h
Method: as §1, §2

HCT-116 cells = assay: MTT antiproliferative assay, HCT-116 cells; assay type: cell-based, human
Method: as §1, §2

MGC-803 cells [4] = assay: Cell colony formation assay; assay type: cell-based, human
Method: To check the effect of compound 13e on cell proliferation, cell colony formatting assay was performed. […] Beside the activity on cell apoptosis, compound 13e inhibited cell proliferation of MGC-803 cells as well.
(§3) In this work, some other assays including colony formation assay and cell apoptosis assay were referred to our previous work.
(§4) Figure 5 Compound 13e inhibited cell proliferation. (A,B) The colony formation of MGC-803 cells after the treatment with indicated concentrations of compound 13e for 7 days; (C) Cell proliferation related proteins in MGC-803 cells of compound 13e after the treatment with indicated concentrations of 13e for 24 h.

GES-1 cells = assay: MTT antiproliferative assay, non-cancer GES-1 cells; assay type: cell-based; settings: for IC50: non-cancer cell line, exposure for 48 h
Method: as §1, §2

MGC-803 cells [5] = assay: Growth curves of MGC-803 cells; assay type: cell-based, human; settings: MGC-803, after treatment for 72 h
Method: Since gastric cancer cell line MGC-803 cells was more sensitive to compound 13e, MGC-803 cells were selected to do further study. The cell viabilities of MGC-803 cells after the treatment with different concentrations of compound 13e for 48 h were presented in Figure 4A, as the concentration rise, cell viability decreased obviously. […] The trends of cell growth were curved with results of cell viabilities after compound 13e treatment. […] We also tested the inhibition activity of compound 13e on normal gastric epithelial cell GES-1.
Figure 4 (A–C) MGC-803 cells inhibition activity of compound 13e […]. (A) Cell viabilities of MGC-803 cells, MGC-803 cells were treated with indicated concentrations of compound 13e for 48 h; (B) Growth curves of MGC-803 cells after the treatment with indicated concentrations of compound 13e for different hours. (C) Cell viabilities of MGC-803 cells and GES-1 cells, cells were treated with indicated concentrations of compound 13e for 48 h. The results shown were representative of three independent experiments.

[6] = test system: apoptosis related proteins in MGC-803 cells; assay: Western blotting of apoptosis related proteins; assay type: cell-based, human; settings: MGC-803, 1.5-6 μmol/L, 48 h
Method: (§5) Gastric cancer cells were seeded in dishes and treated with 13e or DMSO. After 48 h, MGC-803 cells were collected and then lysed. The denatured lysates of each groups were electrophoretic separated in SDS-PAGE. Proteins were then transferred onto PVDF membranes from gels. After blocking for 2 h, membranes were incubated with primary antibodies conjugation. Then, the membranes were washed and incubated with 2nd antibodies. At last, specific proteins were detected.
Figure 7 Compound 13e regulated apoptosis related proteins. (A,B) The expression of cell apoptosis related proteins were detected by western blotting. MGC-803 cells were incubated with various concentrations compound 13e (0 μmol/L, 1.5 μmol/L, 3 μmol/L, 6 μmol/L) for 48 h. Date are represented as mean ± SD of three independent experiments.

MGC-803 cells [7] = assay: Annexin V/PI flow cytometry apoptosis assay; assay type: cell-based, human; settings: MGC-803, 6 μmol/L, 48 h; control less than 10%
Method: as §3
(§6) Figure 6 Compound 13e induced cell apoptosis. (A) Cell nucleus (upper panel) and morphology (lower panel) of compound 13e treated (48 h) or untreated MGC-803 cells; (B) Compound 13e induced apoptosis of MGC-803 cells. After incubated with compound 13e for 48 h, MGC-803 cells were detected by Annexin V/PI with flow cytometric analysis. The Q3 represents live cells, Q4 represents early/primary apoptotic cells, Q2 represents late/secondary apoptotic cells and Q1 represents cells necrosis. (C) The percentage of apoptosis (early and late apoptosis) cells increased dependently with various concentrations of compound 13e. Date are represented as mean ± SD of three independent experiments.

MGC-803 cells [8] = assay: DAPI fluorescent staining of cell nucleus; assay type: cell-based, human; settings: MGC-803, high dose treated group, 48 h
Method: Cells were seeded in 6-welled plate, then treated with different concentration of compounds for 48 h. The treated and untreated cells were washed with PBS buffer. Then fixed with 4% paraformaldehyde for 10 min in dark. After washed with PBS buffer, cells were stained by 2 μg/mL DAPI solution containing 0.1% triton X-100 for 30 min. Discard the solution and wash the cells with PBS buffer. Capture the images with a fluorescence microscope.
as §6

[9] = test system: CyclinB1 and CDK1 in MGC-803 cells; assay: Western blotting of cell proliferation related proteins; assay type: cell-based, human; settings: MGC-803, western blot, 24 h
Method: as §5, §4

SKVO3 cells = test system: SKVO3 cells; parameters: method as in PMID 27213819; settings: cited from earlier work
[10] = Homo sapiens, MCF7, exposure for 48 h
[11] = Homo sapiens, HCT-116, exposure for 48 h

Compound: O=C(/C=C/c1cn(S(=O)(=O)c2ccc(Cl)cc2Cl)c2ccccc12)c1ccncc1 [Compound 4]
IC50 (hCA IX): 0.13 µM
IC50 (MCF-7 cells [1]): 12.2 µM

melting point: 125 to 126 °C
IC50 (MCF-7 cells [2]; [10]): 4.45 ± 0.11 µM
IC50 (MGC-803 cells [3]; Homo sapiens, MGC-803, 48 h): 3.01 ± 0.11 µM
IC50 (HCT-116 cells; [11]): 4.28 ± 0.32 µM
Compound: COc1cc(/C=C/C(=O)c2ccc(NC(=O)CCCCCl)cc2)cc(OC)c1OC [Compound 13f]

melting point: 161 to 162 °C
IC50 (MCF-7 cells [2]; [10]): 22.2 ± 0.83 µM
IC50 (MGC-803 cells [3]; Homo sapiens, MGC-803, 48 h): 22.1 ± 0.75 µM
IC50 (HCT-116 cells; [11]): 13.1 ± 0.51 µM
Compound: O=C(CCCCl)Nc1ccc(C(=O)/C=C/c2ccccc2)cc1 [Compound 13h]

melting point: 182 to 183 °C
IC50 (MCF-7 cells [2]; [10]): 3.12 ± 0.01 µM
IC50 (MGC-803 cells [3]; Homo sapiens, MGC-803, 48 h): 1.88 ± 0.22 µM
IC50 (HCT-116 cells; [11]): 2.83 ± 0.03 µM
Compound: COc1cc(/C=C/C(=O)c2ccc(NC(=O)CCl)cc2)cc(OC)c1OC [Compound 13c]

melting point: 170 to 171 °C
IC50 (MCF-7 cells [2]; [10]): 2.54 ± 0.18 µM
IC50 (MGC-803 cells [3]; Homo sapiens, MGC-803, 48 h): 1.54 µM
IC50 (MGC-803 cells [3]): 1.52 ± 0.12 µM
IC50 (HCT-116 cells; [11]): 1.83 ± 0.2 µM
Compound: COc1cc(/C=C/C(=O)c2ccc(NC(=O)CCCCl)cc2)cc(OC)c1OC [Compound 13e]
Concentration at which colonies were evidently reduced (MGC-803 cells [4]; MGC-803, 7 days treatment, compared to control): greater than 0.5 μmol/L
Colony formation of MGC-803 cells (MGC-803 cells [4]; result in words): inhibited the colony formation
Fold Selectivity A (GES-1 cells; A = IC50 (GES-1)/IC50 (MGC-803)): 5.4 fold
IC50 (GES-1 cells; Homo sapiens, GES1): 8.22 µM
Concentration range of selective inhibitory effect on cancer cells (GES-1 cells; MGC-803 versus GES-1, 48 h): below 2 μmol/L
Inhibition activity on GES-1 compared with MGC-803 (GES-1 cells; cell viability, 48 h, Figure 4C): lower inhibition activity on GES-1 than gastric cancer cell MGC-803
Dose from which cell growth is inhibited (MGC-803 cells [5]): ≥ 0.75 µmol/L
Bcl-2 expression [6]: down regulated
Caspase3/7 [6]: cleaved (activated)
Caspase8 [6]: cleaved (activated)
Caspase12 [6]: cleaved (activated)
DR5 expression [6]: up regulated
Noxa expression [6]: up regulated
PARP [6]: cleaved
XIAP expression [6]: decreased
c-IAP1 expression [6]: decreased
t-Bid [6]: increase
Rate of apoptosis cells (early and late) (MGC-803 cells [7]): 86.7%
Cell nucleus morphology (DAPI) (MGC-803 cells [8]): concentrated and fragmented
CDK1 protein level [9]: down-regulated
CyclinB1 protein level [9]: down-regulated

Compound: COc1ccc(N(C)c2cc(=O)oc3ccccc23)cc1NC(=O)CCCCl [Compound 9]
IC50 (SKVO3 cells): 0.0035 µM

melting point: 166 to 167 °C
IC50 (MCF-7 cells [2]; [10]): 10.1 ± 0.73 µM
IC50 (MGC-803 cells [3]; Homo sapiens, MGC-803, 48 h): 16.3 ± 0.65 µM
IC50 (HCT-116 cells; [11]): > 40 µM
Compound: COc1ccc(/C=C/C(=O)c2ccc(NC(=O)CCCCl)cc2)cc1OC [Compound 13l]

IC50 (MCF-7 cells [2]; exposure for 48 h): 12.1 ± 1.28 µM
IC50 (HCT-116 cells; exposure for 48 h): 14.4 ± 1.73 µM
Compound: O=c1[nH]cc(F)c(=O)[nH]1 [Compound 5-Fu, reference compound]
IC50 (GES-1 cells): 8.22 µM

IC50 (MCF-7 cells [2]; exposure for 48 h): 3.11 ± 0.34 µM
IC50 (MGC-803 cells [3]): 4.08 ± 0.24 µM
IC50 (HCT-116 cells; exposure for 48 h): 6.72 ± 0.28 µM
Compound: (E)-N-(4-(3-oxo-3-(3,4,5-trimethoxyphenyl) prop-1-en-1-yl)phenyl) pentanamide [Compound 13b]

melting point: 183 to 184 °C
IC50 (MCF-7 cells [2]; [10]): 2.12 ± 0.13 µM
IC50 (MGC-803 cells [3]; Homo sapiens, MGC-803, 48 h): 1.64 ± 0.18 µM
IC50 (HCT-116 cells; [11]): 2.4 ± 0.26 µM
Compound: COc1cc(/C=C/C(=O)c2ccc(NC(=O)CCCl)cc2)cc(OC)c1OC [Compound 13d]
